Values of other authors in PubChem BioAssay AID1259409 (Chemical Carcinogenesis Research Information System (CCRIS), 2018).

System: rodent chemically induced tumor inhibition, incidence and multiplicity
Test: CCRIS tumor inhibitor studies

Compound: CC(C)(C)c1cc(-c2cc(C(C)(C)C)c(O)c(C(C)(C)C)c2)cc(C(C)(C)C)c1O
- tumour outcome (control, treated, inhibition, significance) (Carcinogen: BENZO[A]PYRENE, 50-32-8, Dose [Inhibitor]: 0.03 MMOL/G OF DIET DAILY STARTING 7 D BEFORE AND CONTINUING THROUGH 3 D AFTER CARCINOGEN TREATMENT FOLLOWED BY OBSERVAT, Route [Inhibitor]: ORAL, Species: MOUSE, Strain/Sex: ICR/FEMALE, Target Tissue: Type of Lesion: FORESTOMACH: NEOPLASM, Dose [Carcinogen]: 1 MG IN 0.2 ML CORN OIL 2/WK FOR 4 WK, Promoter: NONE USED): 90%, 89%, 1%, not significant

Compound: C[Se]C[C@H](N)C(=O)O
- tumour outcome (control, treated, inhibition, significance) (Carcinogen: 7,12-DIMETHYLBENZ[A]ANTHRACENE, 57-97-6, Dose [Inhibitor]: 0, 0.000025 MOL/KG DIET BEGINNING 1 WK POST CARCINOGEN AND CONTINUED FOR STUDY DURATION (STUDY DURATION: 25 WK), Route [Inhibitor]: ORAL, Species: RAT, Strain/Sex: CD-1/FEMALE, Target Tissue: Type of Lesion: MAMMARY GLAND: ADENOCARCINOMA, Dose [Carcinogen]: 10 MG ONCE, Promoter: NONE USED): 25/30 (83%), 15/30 (50%), 40%, p<0.05
- tumour outcome (control, treated, inhibition, significance) (Carcinogen: 7,12-DIMETHYLBENZ[A]ANTHRACENE, 57-97-6, Dose [Inhibitor]: 0, 0.000025 MOL/KG DIET BEGINNING 2 WK PRIOR TO CARCINOGEN AND CONTINUED 1 WK POST CARCINOGEN (STUDY DURATION: 25 WK), Route [Inhibitor]: ORAL, Species: RAT, Strain/Sex: CD-1/FEMALE, Target Tissue: Type of Lesion: MAMMARY GLAND: ADENOCARCINOMA, Dose [Carcinogen]: 10 MG ONCE, Promoter: NONE USED): 25/30 (83%), 17/30 (57%), 31%, p<0.05
- tumour outcome (control, treated, inhibition, significance) (Carcinogen: 7,12-DIMETHYLBENZ[A]ANTHRACENE, 57-97-6, Dose [Inhibitor]: 0, 0.000025 MOL/KG DIET BEGINNING 2 WK PRIOR TO CARCINOGEN AND CONTINUED FOR STUDY DURATION (STUDY DURATION: 25 WK), Route [Inhibitor]: ORAL, Species: RAT, Strain/Sex: CD-1/FEMALE, Target Tissue: Type of Lesion: MAMMARY GLAND: ADENOCARCINOMA, Dose [Carcinogen]: 10 MG ONCE, Promoter: NONE USED): 22/25 (88%), 10/25 (40%), 55%, p<0.05

Compound: CCCC(=O)O
- tumour outcome (control, treated, inhibition, significance) (Carcinogen: 7,12-DIMETHYLBENZ[A]ANTHRACENE, 57-97-6, Dose [Inhibitor]: 0, 6% IN BASAL DIET BEGINNING 1 WK PRIOR TO CARCINOGEN DOSE AND CONTINUING FOR DURATION OF STUDY (STUDY DURATION: >15 WK, Route [Inhibitor]: ORAL, Species: RAT, Strain/Sex: SPRAGUE-DAWLEY/FEMALE, Target Tissue: Type of Lesion: MAMMARY GLAND: ADENOCARCINOMA, Dose [Carcinogen]: 5 MG IN 0.5 ML CORN OIL ONCE, Promoter: NONE USED): 10/26 (38%), 4/20 (20%), 47%, not significant
- tumour outcome (control, treated, inhibition, significance) (Carcinogen: 7,12-DIMETHYLBENZ[A]ANTHRACENE, 57-97-6, Dose [Inhibitor]: 0, 6% IN BASAL DIET BEGINNING 1 WK PRIOR TO CARCINOGEN DOSE AND CONTINUING FOR DURATION OF STUDY (STUDY DURATION: >15 WK, Route [Inhibitor]: ORAL, Species: RAT, Strain/Sex: SPRAGUE-DAWLEY/FEMALE, Target Tissue: Type of Lesion: MAMMARY GLAND: CARCINOMA, Dose [Carcinogen]: 5 MG IN 0.5 ML CORN OIL ONCE, Promoter: NONE USED): 11/26 (42%), 8/20 (40%), 5%, not significant
- tumour outcome (control, treated, inhibition, significance) (Carcinogen: 7,12-DIMETHYLBENZ[A]ANTHRACENE, 57-97-6, Dose [Inhibitor]: 0, 6% IN DIET CONTAINING 20% SAFFLOWER MARGARINE BEGINNING 1 WK PRIOR TO CARCINOGEN DOSE AND CONTINUING FOR DURATION OF, Route [Inhibitor]: ORAL, Species: RAT, Strain/Sex: SPRAGUE-DAWLEY/FEMALE, Target Tissue: Type of Lesion: MAMMARY GLAND: ADENOCARCINOMA, Dose [Carcinogen]: 5 MG IN 0.5 ML CORN OIL ONCE, Promoter: NONE USED): 14/19 (74%), 8/20 (40%), 46%, p<0.05
- tumour outcome (control, treated, inhibition, significance) (Carcinogen: 7,12-DIMETHYLBENZ[A]ANTHRACENE, 57-97-6, Dose [Inhibitor]: 0, 6% IN DIET CONTAINING 20% SAFFLOWER MARGARINE BEGINNING 1 WK PRIOR TO CARCINOGEN DOSE AND CONTINUING FOR DURATION OF, Route [Inhibitor]: ORAL, Species: RAT, Strain/Sex: SPRAGUE-DAWLEY/FEMALE, Target Tissue: Type of Lesion: MAMMARY GLAND: CARCINOMA, Dose [Carcinogen]: 5 MG IN 0.5 ML CORN OIL ONCE, Promoter: NONE USED): 16/19 (84%), 11/20 (55%), 35%, p<0.05

Compound: CC(C)=CCC1=C(O)[C@@](O)(CC=C(C)C)C(=O)C(C(=O)CC(C)C)=C1O
- tumour outcome (control, treated, inhibition, significance) (Carcinogen: 7,12-DIMETHYLBENZ[A]ANTHRACENE : 57-97-6, Dose [Inhibitor]: 0, 1 MG IN 100 µL ACETONE/DMSO (9:1) 2/WK FOR 17 WK APPLIED 30 MIN PRIOR TO EACH PROMOTER DOSE (STUDY DURATION: 18 WK), Route [Inhibitor]: DERMAL, Species: MOUSE, Strain/Sex: ICR/FEMALE, Target Tissue: Type of Lesion: SKIN: PAPILLOMA, Dose [Carcinogen]: 50 UG IN 100 µL ACETONE ONCE, Promoter: 12-O-TETRADECANOYLPHORBOL-13-ACETATE, 16561-29-8): 100%, 7%, 93%, not calculated

Compound: Cc1c(C)c2c(c(C)c1O)CCC(C)(COc1ccc(CC3SC(=O)NC3=O)cc1)O2 (configuration not stated)
- tumour outcome (control, treated, inhibition, significance) (Carcinogen: 4-NITROQUINOLINE 1-OXIDE, 56-57-5, Dose [Inhibitor]: 0, 30 PPM IN DIET FOR 22 WK BEGINNING 1 WK POST FINAL CARCINOGEN DOSE (STUDY DURATION: 31 WK), Route [Inhibitor]: ORAL, Species: RAT, Strain/Sex: F344/MALE, Target Tissue: Type of Lesion: TONGUE: PAPILLOMA, Dose [Carcinogen]: 20 PPM IN DRINKING WATER FOR 8 WK): 3/24 (12.5%), 0/19 (0%), 100%, not significant
- tumour outcome (control, treated, inhibition, significance) (Carcinogen: 4-NITROQUINOLINE 1-OXIDE, 56-57-5, Dose [Inhibitor]: 0, 30 PPM IN DIET FOR 22 WK BEGINNING 1 WK POST FINAL CARCINOGEN DOSE (STUDY DURATION: 31 WK), Route [Inhibitor]: ORAL, Species: RAT, Strain/Sex: F344/MALE, Target Tissue: Type of Lesion: TONGUE: SQUAMOUS CELL CARCINOMA, Dose [Carcinogen]: 20 PPM IN DRINKING WATER FOR 8 WK): 11/24 (45.8%), 5/19 (26.3%), 42.6%, not significant
- tumour outcome (control, treated, inhibition, significance) (Carcinogen: 4-NITROQUINOLINE 1-OXIDE, 56-57-5, Dose [Inhibitor]: 0, 100 PPM IN DIET FOR 22 WK BEGINNING 1 WK POST FINAL CARCINOGEN DOSE (STUDY DURATION: 31 WK), Route [Inhibitor]: ORAL, Species: RAT, Strain/Sex: F344/MALE, Target Tissue: Type of Lesion: TONGUE: PAPILLOMA, Dose [Carcinogen]: 20 PPM IN DRINKING WATER FOR 8 WK): 3/24 (12.5%), 3/20 (15%), -20%, not significant
- tumour outcome (control, treated, inhibition, significance) (Carcinogen: 4-NITROQUINOLINE 1-OXIDE, 56-57-5, Dose [Inhibitor]: 0, 100 PPM IN DIET FOR 22 WK BEGINNING 1 WK POST FINAL CARCINOGEN DOSE (STUDY DURATION: 31 WK), Route [Inhibitor]: ORAL, Species: RAT, Strain/Sex: F344/MALE, Target Tissue: Type of Lesion: TONGUE: SQUAMOUS CELL CARCINOMA, Dose [Carcinogen]: 20 PPM IN DRINKING WATER FOR 8 WK): 11/24 (45.8%), 1/20 (5%), 89.1%, p< 0.005
- tumour outcome (control, treated, inhibition, significance) (Carcinogen: AZOXYMETHANE (25843-45-2), Dose [Inhibitor]: 0, 0.05% ADMINISTERED 1 WK AFTER END OF DEXTRAN SODIUM SULFATE TREATMENT FOR 14 WKS (STUDY DURATION: 17 WKS), Route [Inhibitor]: DIET, Species: MOUSE, Strain/Sex: CD-1/FEMALE (10,10)/(10,10), Target Tissue: Type of Lesion: COLON: ADENOCARCINOMA, Dose [Carcinogen]: 10 MG/KG ONCE, Promoter: DEXTRAN SODIUM SULFATE (9011-18-1)): 10/10 (100%), 4/10 (40%), 60%, p<0.01
- tumour outcome (control, treated, inhibition, significance) (Carcinogen: AZOXYMETHANE (25843-45-2), Dose [Inhibitor]: 0, 0.05% ADMINISTERED 1 WK AFTER END OF DEXTRAN SODIUM SULFATE TREATMENT FOR 14 WKS (STUDY DURATION: 17 WKS), Route [Inhibitor]: DIET, Species: MOUSE, Strain/Sex: CD-1/FEMALE (10,10)/(10,10), Target Tissue: Type of Lesion: COLON: ADENOMA, Dose [Carcinogen]: 10 MG/KG ONCE, Promoter: DEXTRAN SODIUM SULFATE (9011-18-1)): 10/10 (100%), 9/10 (90%), 10%, not significant
- tumour outcome (control, treated, inhibition, significance) (Carcinogen: N-METHYL-N-NITROSOUREA [684-93-5], Dose [Inhibitor]: 0.15% IN DIET FROM WKS 10 TO 52 (STUDY DURATION: 52 WKS), Route [Inhibitor]: ORAL (DIET), Species: MOUSE, Strain/Sex: PEROXISOME PROLIFERATOR- ACTIVATED RECEPTOR (PPAR GAMMA +/+)/MALE (11,9)/(13,11), Target Tissue: Type of Lesion: STOMACH: CARCINOMA, Dose [Carcinogen]: 240 PPM IN DRINKING WATER ON ALTERNATE WKS OVER A 10 WK PERIOD): (5/9) 56%, (1/11) 9%, 84%, p<0.01
- tumour outcome (control, treated, inhibition, significance) (Carcinogen: N-METHYL-N-NITROSOUREA [684-93-5], Dose [Inhibitor]: 0.15% IN DIET FROM WKS 10 TO 52 (STUDY DURATION: 52 WKS), Route [Inhibitor]: ORAL (DIET), Species: MOUSE, Strain/Sex: PEROXISOME PROLIFERATOR- ACTIVATED RECEPTOR (PPAR GAMMA +/-)/MALE (23,19)/(19,15), Target Tissue: Type of Lesion: STOMACH: CARCINOMA, Dose [Carcinogen]: 240 PPM IN DRINKING WATER ON ALTERNATE WKS OVER A 10 WK PERIOD): (17/19) 90%, (12/15) 80%, 11%, not significant
